These are literature values, as cited in paper PMC10444862, “Using macromolecular electron densities to improve the enrichment of active compounds in virtual screening” (Communications Chemistry, 2023).

The test system of this data set is AMPC. Conditions: activities reported in the DUD-E dataset; cited from earlier work.
In the case of `O=C(O)c1sccc1S(=O)(=O)Nc1ccccc1N1CCCCC1` [104_58, O=C([O-])c1sccc1S(=O)(=O)Nc1ccccc1N1CCCCC1], the label entry is reported as “active”.

For `O=C(O)c1ccccc1S(=O)(=O)Nc1ccc(Cl)cc1` [109_49, O=C([O-])c1ccccc1S(=O)(=O)Nc1ccc(Cl)cc1], the label result was “active”.

`CSCC[C@@H](C(=O)O)N1C(=O)c2ccc(C(=O)O)cc2C1=O` [212_4, CSCC[C@@H](C(=O)[O-])N1C(=O)c2ccc(C(=O)[O-])cc2C1=O]: the label result is listed as “active”.

`Nc1onc(-c2ccc(Cl)cc2)c1C(=O)O` [317_12, Nc1onc(-c2ccc(Cl)cc2)c1C(=O)[O-]]: the label result is given as “active”.

On to `Cc1nc2ccc(P(=O)(O)O)cc2s1` [319_2, Cc1nc2ccc([P@](=O)([O-])O)cc2s1], for which the label entry is “active”.
